Target: PARP7 (Homo sapiens (Human), UniProt Q7Z3E1)
Experiment: In vitro enzymology experiment of PARP7 (enzymatic inhibition)
Type: biochemical
Procedure: II. In Vitro Enzymology Experiment of PARP2, 3, 5A, 5B, 7, 12, and 15
1. Preparation of 384-well histone-coated plate: 25 μL of histone solution was added to each well, and the plate was incubated overnight at 4° C.
2. Preparation of PBST buffer, blocking buffer, and assay buffer
3. The 384-well histone-coated plate was washed three times with PBST buffer. The plate was blocked by 50 μL of blocking buffer for 1 hour at room temperature. The plate was then washed three times with PBST buffer.
2000× compound was prepared in a 96-well source plate. 50 nL of the compound was transferred from the source plate to a 96-well intermediate plate, and 39.95 μL of assay buffer was added to each well. The plate was shaken well and centrifuged at 1000 rpm for 1 minute.
5 μL of compound DMSO solution was transferred to each well.
An enzyme mixture was incubated at 25° C. for 10 minutes.
10 μL of the enzyme mixture was added, and incubated with the compound at room temperature for 10 minutes.
10 μL of assay buffer was added to the negative control well of the assay plate.
The plate was then washed three times with PBST buffer.
25 μL of Stre-HRP was added.
The plate was incubated at room temperature for 1 hour and washed three times with PBS buffer.
25 μL of QuantaRed Enhancer mix was added. The plate was incubated for 10 minutes.
2.5 μL of QuantaRed Stop Solution was added to terminate the peroxidase reaction, and the plate was shaken for 10 to 30 seconds.
7. Paradigm was used to read the plate immediately to detect the readings at Ex550/Em620.
Using equation (1) to fit the data in Excel to obtain inhibition values
Using equation (2) to fit the data in XL-Fit to obtain IC50 values
Y is the percentage of inhibition, and X is the compound concentration.

Sequence of PARP7 (Q7Z3E1 whole entry): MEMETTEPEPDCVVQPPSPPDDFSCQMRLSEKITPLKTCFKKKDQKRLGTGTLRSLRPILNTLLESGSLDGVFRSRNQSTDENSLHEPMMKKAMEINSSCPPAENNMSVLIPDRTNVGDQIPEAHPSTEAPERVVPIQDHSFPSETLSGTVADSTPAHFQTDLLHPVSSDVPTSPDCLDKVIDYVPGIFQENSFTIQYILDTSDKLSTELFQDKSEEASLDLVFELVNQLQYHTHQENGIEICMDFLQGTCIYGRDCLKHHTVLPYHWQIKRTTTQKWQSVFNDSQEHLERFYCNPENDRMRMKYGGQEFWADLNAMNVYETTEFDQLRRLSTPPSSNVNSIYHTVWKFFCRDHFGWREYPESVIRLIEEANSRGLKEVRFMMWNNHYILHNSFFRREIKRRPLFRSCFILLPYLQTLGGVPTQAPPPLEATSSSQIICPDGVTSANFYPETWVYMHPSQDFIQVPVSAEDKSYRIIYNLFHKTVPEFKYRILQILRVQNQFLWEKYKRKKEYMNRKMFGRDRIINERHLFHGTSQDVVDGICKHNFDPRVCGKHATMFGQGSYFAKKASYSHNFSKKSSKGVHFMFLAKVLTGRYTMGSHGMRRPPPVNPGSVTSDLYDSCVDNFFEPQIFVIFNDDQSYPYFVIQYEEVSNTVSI

SMILES	IC50 [nM]
O=C(COC[C@@H]1CCCN1c1c[nH]c(=O)c(C(F)(F)F)c1)N1CCN(c2ncc(C(F)(F)F)cn2)CC1 [Example 7, (S)-5-(2-((2-Oxo-2-(4-(5-(trifluoromethyl)pyrimidin-2-yl)piperazin-1-yl)ethoxy)methyl)pyrrolidin-1-yl)-3-(trifluoromethyl)pyridin-2(1H)-one]	2.79
C[C@@H](Cc1c[nH]c(=O)c(C(F)(F)F)c1)OC(=O)N1CCN(c2ncc(C(F)(F)F)s2)CC1 [Example 49, (S)-1-(6-Oxo-5-(trifluoromethyl)-1,6-dihydropyridin-3-yl)propan-2-yl 4-(5-(trifluoromethyl)thiazol-2-yl)piperazine-1-carboxylate]	0.76
C[C@@H](Cc1c[nH]c(=O)c(C(F)(F)F)c1)OC(=O)N1CC[C@@H](Nc2ncc(C(F)(F)F)cn2)C1 [Example 53, (S)-1-(6-Oxo-5-(trifluoromethyl)-1,6-dihydropyridin-3-yl)propan-2-yl (R)-3-((5-(trifluoromethyl)pyrimidin-2-yl)amino) pyrrolidine-1-carboxylate]	2.3
C[C@@H]1CN(C(=O)OCCc2c[nH]c(=O)c(C(F)(F)F)c2)C[C@H](C)N1c1ncc(C2CC2)cn1 [Example 181, 2-(6-Oxo-5-(trifluoromethyl)-1,6-dihydropyridin-3-yl)ethyl (3S,5R)-4-(5-cyclopropylpyrimidin-2-yl)-3,5-dimethylpiperazine-1-carboxylate]	1.3
CC(Cc1c[nH]c(=O)c(C(F)(F)F)c1)OC(=O)N1CCN(c2ncccn2)CC1 (centres unmarked) [Example 42, 1-(6-Oxo-5-(trifluoromethyl)-1,6-dihydropyridin-3-yl)propan-2-yl 4-(pyrimidin-2-yl)piperazine-1-carboxylate]	1.46
Cc1cnc(N2C[C@H](C)N(C(=O)OCCc3c[nH]c(=O)c(C(F)(F)F)c3)C[C@H]2C)nc1 [Example 166, 2-(6-Oxo-5-(trifluoromethyl)-1,6-dihydropyridin-3-yl)ethyl (2S,5R)-2,5-dimethyl-4-(5-methylpyrimidin-2-yl)piperazine-1-carboxylate]	0.65
C[C@@H](Cc1c[nH]c(=O)c(C(F)(F)F)c1)OC(=O)N1CC[C@H](Nc2ncc(C(F)(F)F)cn2)C1 [Example 66, (S)-1-(6-Oxo-5-(trifluoromethyl)-1,6-dihydropyridin-3-yl)propan-2-yl (S)-3-((5-(trifluoromethyl)pyrimidin-2-yl)amino) pyrrolidine-1-carboxylate]	1.82
O=C(O[C@H]1CCC[C@@H]1c1c[nH]c(=O)c(C(F)(F)F)c1)N1CCN(c2ncc(C(F)(F)F)cn2)CC1 [Example 56, (1S,2R)-2-(6-Oxo-5-(trifluoromethyl)-1,6-dihydropyridin-3-yl)cyclopentyl 4-(5-(trifluoromethyl)pyrimidin-2-yl)piperazine-1-carboxylate]	2.27
C[C@@H]1CN(c2ncc(C3CC3)cn2)[C@@H](C)CN1C(=O)O[C@@H](C)Cc1c[nH]c(=O)c(C(F)(F)F)c1 [Example 173, (S)-1-(6-Oxo-5-(trifluoromethyl)-1,6-dihydropyridin-3-yl)propan-2-yl (2R,5S)-4-(5-cyclopropylpyrimidin-2-yl)-2,5-dimethylpiperazine-1-carboxylate]	0.74
Cc1c(C[C@H](C)OC(=O)N2CCN(c3ncc(C(F)(F)F)cn3)CC2)c[nH]c(=O)c1C(F)(F)F [Example 81, (S)-1-(4-Methyl-6-oxo-5-(trifluoromethyl)-1,6-dihydropyridin-3-yl)propan-2-yl 4-(5-(trifluoromethyl)pyrimidin-2-yl)piperazine-1-carboxylate]	0.75
CC(COC(=O)N1CCN(c2ncc(C(F)(F)F)cn2)CC1)c1c[nH]c(=O)c(C(F)(F)F)c1 (centres unmarked) [Example 25, 2-(6-Oxo-5-(trifluoromethyl)-1,6-dihydropyridin-3-yl)propyl 4-(5-(trifluoromethyl)pyrimidin-2-yl)piperazine-1-carboxylate]	0.8
O=C(OCCc1c[nH]c(=O)c(C(F)(F)F)c1)N1CCN(c2ncc(C(F)(F)F)cn2)C[C@H]1CO [Example 110, 2-(6-Oxo-5-(trifluoromethyl)-1,6-dihydropyridin-3-yl)ethyl (S)-2-(hydroxymethyl)-4-(5-(trifluoromethyl)pyrimidin-2-yl)piperazine-1-carboxylate]	0.65
C[C@@H](Cc1c[nH]c(=O)c(C(F)(F)F)c1)OC(=O)N1CCN(c2ncc(C(F)(F)F)cn2)[C@H](CO)C1 [Example 80, (S)-1-(6-Oxo-5-(trifluoromethyl)-1,6-dihydropyridin-3-yl)propan-2-yl (S)-3-(hydroxymethyl)-4-(5-(trifluoromethyl)pyrimidin-2-yl)piperazine-1-carboxylate]	1.5
CC[C@@H](Cc1c[nH]c(=O)c(C(F)(F)F)c1)OC(=O)N1CCN(c2ncc(C(F)(F)F)cn2)CC1 [Example 116, (S)-1-(6-Oxo-5-(trifluoromethyl)-1,6-dihydropyridin-3-yl) butan-2-yl 4-(5-(trifluoromethyl)pyrimidin-2-yl)piperazine-1-carboxylate]	0.81
CC(Cc1c[nH]c(=O)c(C(F)(F)F)c1)OC(=O)N1CCN(c2ncc(Cl)cn2)CC1 (centres unmarked) [Example 44, 1-(6-Oxo-5-(trifluoromethyl)-1,6-dihydropyridin-3-yl)propan-2-yl 4-(5-chloropyrimidin-2-yl)piperazine-1-carboxylate]	0.8
C[C@@H](Cc1c[nH]c(=O)c(C(F)(F)F)c1)OC(=O)N1CCN(c2ncc(C3CC3)cn2)CC1 [Example 176, (S)-1-(6-Oxo-5-(trifluoromethyl)-1,6-dihydropyridin-3-yl)propan-2-yl 4-(5-cyclopropylpyrimidin-2-yl)piperazine-1-carboxylate]	1.7
C[C@@H]1CN(C(=O)O[C@@H](C)Cc2c[nH]c(=O)c(C(F)(F)F)c2)C[C@H](C)N1c1ncc(C(F)(F)F)cn1 [Example 162, (S)-1-(6-Oxo-5-(trifluoromethyl)-1,6-dihydropyridin-3-yl)propan-2-yl (3S,5R)-3,5-dimethyl-4-(5-(trifluoromethyl)pyrimidin-2-yl)piperazine-1-carboxylate]	1.2
C[C@@H](Cc1c[nH]c(=O)c(C(F)(F)F)c1)OC(=O)N1CCN(c2ncc(S(C)(=O)=O)cn2)CC1 [Example 101, (S)-1-(6-Oxo-5-(trifluoromethyl)-1,6-dihydropyridin-3-yl)propan-2-yl 4-(5-(methylsulfonyl)pyrimidin-2-yl)piperazine-1-carboxylate]	0.67

Results, then the molecule that gave them:

IC50 [nM]	SMILES
0.59	C[C@@H]1CN(c2ncc(C(F)(F)F)cn2)[C@@H](C)CN1C(=O)O[C@@H](C)Cc1c[nH]c(=O)c(C(F)(F)F)c1 [Example 155, (S)-1-(6-Oxo-5-(trifluoromethyl)-1,6-dihydropyridin-3-yl)propan-2-yl (2R,5S)-2,5-dimethyl-4-(5-(trifluoromethyl)pyrimidin-2-yl)piperazine-1-carboxylate]
0.52	Cc1cnc(N2CCN(C(=O)O[C@@H](C)Cc3c[nH]c(=O)c(C(F)(F)F)c3)CC2)nc1 [Example 84, (S)-1-(6-Oxo-5-(trifluoromethyl)-1,6-dihydropyridin-3-yl)propan-2-yl 4-(5-methylpyrimidin-2-yl)piperazine-1-carboxylate]
0.5	CNC(=O)c1cnc(N2CCN(C(=O)O[C@@H](C)Cc3c[nH]c(=O)c(C(F)(F)F)c3)CC2)nc1 [Example 87, (S)-1-(6-Oxo-5-(trifluoromethyl)-1,6-dihydropyridin-3-yl)propan-2-yl 4-(5-(methylcarbamoyl)pyrimidin-2-yl)piperazine-1-carboxylate]
0.64	C[C@@H]1CN(C(=O)OCCc2c[nH]c(=O)c(C(F)(F)F)c2)C[C@@H](C)N1c1ncc(C(F)(F)F)cn1 [Example 149, 2-(6-Oxo-5-(trifluoromethyl)-1,6-dihydropyridin-3-yl)ethyl (3R,5R)-3,5-dimethyl-4-(5-(trifluoromethyl)pyrimidin-2-yl)piperazine-1-carboxylate]
0.6	C[C@H](COC(=O)N1CCN(c2ncc(C(F)(F)F)cn2)CC1)c1c[nH]c(=O)c(C(F)(F)F)c1 [Example 26]
0.52	C[C@@H](Cc1c[nH]c(=O)c(C(F)(F)F)c1)OC(=O)N1CCN(c2ncc(C(F)F)cn2)CC1 [Example 50, (S)-1-(6-Oxo-5-(trifluoromethyl)-1,6-dihydropyridin-3-yl)propan-2-yl 4-(5-(difluoromethyl)pyrimidin-2-yl)piperazine-1-carboxylate]
0.56	C[C@@H](Cc1c[nH]c(=O)c(C(F)(F)F)c1)OC(=O)N1CCC(c2ccc(C(F)(F)F)cn2)CC1 [Example 99, (S)-1-(6-Oxo-5-(trifluoromethyl)-1,6-dihydropyridin-3-yl)propan-2-yl 4-(5-(trifluoromethyl)pyridin-2-yl)piperidine-1-carboxylate]
0.44	O=C(NCCc1c[nH]c(=O)c(C(F)(F)F)c1)N1CCN(c2ncc(C(F)(F)F)cn2)CC1 [Example 32, N-(2-(6-Oxo-5-(trifluoromethyl)-1,6-dihydropyridin-3-yl)ethyl)-4-(5-(trifluoromethyl)pyrimidin-2-yl)piperazine-1-carboxamide]
